Reference: US11884675B2, “Heterocyclic compounds as triggering receptor expressed on myeloid cells 2 agonists and methods of use” (AMGEN INC., priority 2020, dated 2024)

Molecular target: hTREM2 (Homo sapiens, UniProt Q9NZC2)
Experiment: TREM2 activity by cellular Syk phosphorylation (AlphaScreen/AlphaLISA) in TREM2/DAP12-HEK cells, used for Examples 1-305
Assay type: cell-based
Set-up: expressed in transfected cells
Details: HEK293 Cells
Procedure, shortened: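 Phospho-Syk (Tyr525/526) over total Syk quantified by AlphaScreen in lysates of cloned TREM2/DAP12-overexpressing HEK293 cells after 45 min compound treatment at room temperature, 1% final DMSO. Values expressed relative to 100 nM anti-TREM2 antibody (positive) and isotype IgG (negative) controls; curves fitted with 4-parameter logistic model.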

Chain of hTREM2 (Q9NZC2 19-230): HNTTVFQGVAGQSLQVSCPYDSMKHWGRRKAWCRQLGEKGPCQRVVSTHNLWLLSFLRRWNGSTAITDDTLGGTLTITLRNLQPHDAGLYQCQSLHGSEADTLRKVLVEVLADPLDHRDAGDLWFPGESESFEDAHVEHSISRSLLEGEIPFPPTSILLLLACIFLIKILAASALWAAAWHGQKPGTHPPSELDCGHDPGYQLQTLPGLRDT
Chain of hTREM2 (O43914 22-113 partner): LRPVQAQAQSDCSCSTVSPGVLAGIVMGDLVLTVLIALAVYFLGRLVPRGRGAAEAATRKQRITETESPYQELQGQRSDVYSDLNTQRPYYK

EC50 [nM] | hTREM2 Emax | SMILES
≤ 50 | +++ (Emax>150 and ≤250) | Cc1nc2nc(N3CCO[C@@H](c4cnn(C5CC5)c4)C3)nc(C3CCC(F)(F)CC3)c2nc1C [Example 138, 2-((2S)-2-(1-cyclopropyl-1H-pyrazol-4-yl)-4-morpholinyl)-4-(4,4-difluorocyclohexyl)-6,7-dimethylpteridine]
≤ 50 | +++ (Emax>150 and ≤250) | Cc1cc([C@H]2CN(c3nc(C4CCC(F)(F)CC4)c4nc(C)c(C)nc4n3)CCO2)ccn1 [Example 139, 4-(4,4-difluorocyclohexyl)-6,7-dimethyl-2-((2S)-2-(2-methyl-4-pyridinyl)-4-morpholinyl)pteridine]
50 to 500 | ++ (Emax>100 and ≤150) | Cc1nc2nc(N3CCO[C@@H](c4cnn(C)c4)C3)nc(C3CCCC3)c2nc1C [Example 140, 4-cyclopentyl-6,7-dimethyl-2-((2S)-2-(1-methyl-1H-pyrazol-4-yl)-4-morpholinyl)pteridine]
50 to 500 | ++ (Emax>100 and ≤150) | Cc1ccc2c(C3CCC(F)(F)CC3)nc(N3CCO[C@@H](c4cnn(C)c4)C3)nc2n1 [Example 141, 4-(4,4-difluorocyclohexyl)-7-methyl-2-((2S)-2-(1-methyl-1H-pyrazol-4-yl)-4-morpholinyl)pyrido [2,3-d]pyrimidine]
3000 to 100000 | ++ (Emax>100 and ≤150) | Cc1ccc2c(n1)nc(N1CCO[C@@H](c3cnn(C)c3)C1)nc2[C@H]1CC[C@@H](C(F)(F)F)CC1 [Example 142, 7-methyl-2-((2S)-2-(1-methyl-1H-pyrazol-4-yl)-4-morpholinyl)-4-(cis-4-(trifluoromethyl)cyclohexyl)pyrido [2,3-d]pyrimidine]
50 to 500 | +++ (Emax>150 and ≤250) | Cc1ccc2c(C3CCC(F)(F)CC3)nc(N3CCO[C@@H](c4cnn(C5CC5)c4)C3)nc2n1 [Example 143, 2-((2S)-2-(1-cyclopropyl-1H-pyrazol-4-yl)-4-morpholinyl)-4-(4,4-difluorocyclohexyl)-7-methylpyrido [2,3-d]pyrimidine]
50 to 500 | ++ (Emax>100 and ≤150) | Cc1ccc2c(n1)nc(N1CCO[C@@H](c3cnn(C4CC4)c3)C1)nc2[C@H]1CC[C@@H](C(F)(F)F)CC1 [Example 144, 2-((2S)-2-(1-cyclopropyl-1H-pyrazol-4-yl)-4-morpholinyl)-7-methyl-4-(cis-4-(trifluoromethyl)cyclohexyl)pyrido [2,3-d]pyrimidine]
≤ 50 | + (Emax>45 and ≤100) | Cc1ccc2c(n1)nc(N1CCO[C@@H](c3cnn(C4CC4)c3)C1)nc2[C@H]1CC[C@H](C(F)(F)F)CC1 [Example 145, 2-((2S)-2-(1-cyclopropyl-1H-pyrazol-4-yl)-4-morpholinyl)-7-methyl-4-(trans-4-(trifluoromethyl)cyclohexyl)pyrido [2,3-d]pyrimidine]
50 to 500 | +++ (Emax>150 and ≤250) | Cc1ccc2c(-c3ccc(Cl)cc3F)nc(N3CCO[C@@H](c4cnn(C)c4)C3)cc2n1 [Example 148, 5-(4-chloro-2-fluorophenyl)-2-methyl-7-((2S)-2-(1-methyl-1H-pyrazol-4-yl)-4-morpholinyl)-1,6-naphthyridine]

SMILES | EC50 [nM] | hTREM2 Emax
Cc1nc2nc(N3CCO[C@@H](c4cnn(C)c4)C3)nc(C3CC(F)(F)C3)c2nc1C [Example 146, 4-(3,3-difluorocyclobutyl)-6,7-dimethyl-2-((2S)-2-(1-methyl-1H-pyrazol-4-yl)-4-morpholinyl) pteridine] | 500 to 3000 | ++ (Emax>100 and ≤150)
Cc1ccc2c(-c3ccc(Cl)cc3F)nc(N3CCO[C@@H](c4cnn(C)c4)C3)cc2c1 [Example 147, 1-(4-chloro-2-fluorophenyl)-6-methyl-3-((2S)-2-(1-methyl-1H-pyrazol-4-yl)-4-morpholinyl) isoquinoline] | 3000 to 100000 | ++++ (Emax>250)
